Results: article PMC5668925 (Biochemistry and Biophysics Reports, 2015)
Read-outs that look alike come from different tables or passages of the source. Each block holds one molecule with its values, some of them ahead of it.

How the values were obtained:
[1] = molecular target: T1, NCT (N- and C-terminal truncated trehalase) (Spodoptera frugiperda, UniProt Q0ZIF5, C-[…]/DEL1-102/LAST/RESIDUES/[…]); test: glucose release assay, Lineweaver-Burk slope replots; format: biochemical
T1 sequence (Q0ZIF5 126-556): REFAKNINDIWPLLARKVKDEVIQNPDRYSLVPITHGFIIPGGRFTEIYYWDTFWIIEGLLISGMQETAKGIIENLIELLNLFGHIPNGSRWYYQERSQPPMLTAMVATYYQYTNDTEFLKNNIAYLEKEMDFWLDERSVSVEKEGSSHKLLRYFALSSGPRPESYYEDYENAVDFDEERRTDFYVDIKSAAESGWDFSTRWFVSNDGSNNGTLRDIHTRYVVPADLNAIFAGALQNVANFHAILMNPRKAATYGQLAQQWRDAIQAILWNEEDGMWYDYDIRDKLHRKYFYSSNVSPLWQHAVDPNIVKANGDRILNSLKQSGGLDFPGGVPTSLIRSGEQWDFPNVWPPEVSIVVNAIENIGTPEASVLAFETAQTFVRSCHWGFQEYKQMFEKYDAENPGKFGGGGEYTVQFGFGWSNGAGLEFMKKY

[2] = molecular target: T2, WT (SfTre1, S. frugiperda midgut soluble trehalase, recombinant) (Spodoptera frugiperda, UniProt Q0ZIF5); test: as above; format: biochemical
T2 sequence (Q0ZIF5 24-587): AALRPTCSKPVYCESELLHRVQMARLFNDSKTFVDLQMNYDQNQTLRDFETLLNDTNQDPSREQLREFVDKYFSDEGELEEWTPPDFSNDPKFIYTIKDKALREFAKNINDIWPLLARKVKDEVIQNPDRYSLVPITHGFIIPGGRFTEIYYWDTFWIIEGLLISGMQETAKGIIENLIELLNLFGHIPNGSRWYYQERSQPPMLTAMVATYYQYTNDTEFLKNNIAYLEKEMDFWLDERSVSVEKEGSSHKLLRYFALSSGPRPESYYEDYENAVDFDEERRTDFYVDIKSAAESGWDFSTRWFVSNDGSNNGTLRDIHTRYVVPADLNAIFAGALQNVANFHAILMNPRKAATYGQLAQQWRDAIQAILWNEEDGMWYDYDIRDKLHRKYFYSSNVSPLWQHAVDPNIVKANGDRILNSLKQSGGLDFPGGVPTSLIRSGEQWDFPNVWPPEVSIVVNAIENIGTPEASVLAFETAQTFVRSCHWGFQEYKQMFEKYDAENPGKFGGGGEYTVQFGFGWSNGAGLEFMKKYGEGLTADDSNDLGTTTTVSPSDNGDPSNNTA

[3] = molecular target: T2, WT (SfTre1, S. frugiperda midgut soluble trehalase, recombinant); test: as above; format: biochemical; remark: listed apart in the source
[4] = molecular target: T3, NT (N-terminal truncated trehalase) (Spodoptera frugiperda, UniProt Q0ZIF5, DEL1-102); test: as above; format: biochemical
T3 sequence (Q0ZIF5 126-587): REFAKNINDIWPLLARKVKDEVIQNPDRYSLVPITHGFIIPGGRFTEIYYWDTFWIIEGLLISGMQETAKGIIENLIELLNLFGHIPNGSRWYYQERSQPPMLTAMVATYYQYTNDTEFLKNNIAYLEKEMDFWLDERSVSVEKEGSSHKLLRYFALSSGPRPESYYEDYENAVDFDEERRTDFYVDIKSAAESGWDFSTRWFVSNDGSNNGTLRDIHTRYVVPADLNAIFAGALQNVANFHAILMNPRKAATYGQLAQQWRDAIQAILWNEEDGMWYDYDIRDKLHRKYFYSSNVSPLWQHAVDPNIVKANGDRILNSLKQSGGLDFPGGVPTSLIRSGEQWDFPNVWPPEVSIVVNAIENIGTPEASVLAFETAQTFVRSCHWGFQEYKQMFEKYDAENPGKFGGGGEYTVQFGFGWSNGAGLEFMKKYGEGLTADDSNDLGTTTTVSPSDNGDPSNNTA

[5] = molecular target: T1, NCT (N- and C-terminal truncated trehalase); test: as above; format: biochemical; remark: listed apart in the source
[6] = molecular target: T4, NCT (N- and C-terminal truncated trehalase) (Spodoptera frugiperda, UniProt Q0ZIF5); test: as above; format: biochemical; details: read-out: Enzyme / NCT; competitive; substrate trehalose 0.2-2 mM; pH 6.0, 30 °C
T4 sequence (Q0ZIF5 126-556): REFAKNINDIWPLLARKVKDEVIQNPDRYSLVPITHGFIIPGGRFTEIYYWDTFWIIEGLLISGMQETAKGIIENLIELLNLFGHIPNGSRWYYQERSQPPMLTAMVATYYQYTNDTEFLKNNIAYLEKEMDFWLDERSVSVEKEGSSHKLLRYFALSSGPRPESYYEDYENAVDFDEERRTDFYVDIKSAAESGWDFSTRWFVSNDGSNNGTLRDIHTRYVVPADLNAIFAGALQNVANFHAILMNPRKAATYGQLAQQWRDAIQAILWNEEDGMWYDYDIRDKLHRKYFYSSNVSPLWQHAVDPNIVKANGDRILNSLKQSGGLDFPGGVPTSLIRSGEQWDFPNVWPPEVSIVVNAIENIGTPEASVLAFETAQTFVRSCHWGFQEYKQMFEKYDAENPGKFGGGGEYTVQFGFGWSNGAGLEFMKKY

[7] = molecular target: T5, NT (N-terminal truncated trehalase) (Spodoptera frugiperda, UniProt Q0ZIF5); test: as above; format: biochemical; details: read-out: Enzyme / NT; competitive; substrate trehalose 0.2-2 mM; pH 6.0, 30 °C
T5 sequence (Q0ZIF5 126-587): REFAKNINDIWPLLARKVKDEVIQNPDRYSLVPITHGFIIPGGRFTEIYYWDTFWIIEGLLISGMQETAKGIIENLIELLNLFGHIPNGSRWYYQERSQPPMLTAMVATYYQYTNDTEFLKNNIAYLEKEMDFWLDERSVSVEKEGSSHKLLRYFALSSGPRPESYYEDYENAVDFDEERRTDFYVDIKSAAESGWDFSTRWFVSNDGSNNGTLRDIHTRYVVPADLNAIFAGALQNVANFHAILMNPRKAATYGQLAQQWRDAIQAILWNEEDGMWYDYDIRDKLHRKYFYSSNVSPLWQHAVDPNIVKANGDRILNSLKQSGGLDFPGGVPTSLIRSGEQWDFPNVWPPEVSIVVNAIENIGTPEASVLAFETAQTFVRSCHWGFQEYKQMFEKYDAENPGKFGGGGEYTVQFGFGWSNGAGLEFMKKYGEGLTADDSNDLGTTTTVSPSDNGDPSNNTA

[8] = substrate: OC[C@H]1O[C@H](O[C@H]2O[C@H](CO)[C@@H](O)[C@H](O)[C@H]2O)[C@H](O)[C@@H](O)[C@@H]1O; test: purified protein; details: pH 6.0 citrate-sodium phosphate, 30 °C

Molecule: N#C[C@H](O[C@@H]1O[C@H](CO[C@@H]2O[C@H](CO)[C@@H](O)[C@H](O)[C@H]2O)[C@@H](O)[C@H](O)[C@H]1O)c1ccccc1 [amygdalin]
Ki [3]: 280 ± 70 µM | Ki [4]: 400 ± 100 µM | Ki [5]: 490 ± 90 µM

B1: WT (SfTre1, S. frugiperda midgut soluble trehalase, recombinant) (Spodoptera frugiperda) (protein)
chain: AALRPTCSKPVYCESELLHRVQMARLFNDSKTFVDLQMNYDQNQTLRDFETLLNDTNQDPSREQLREFVDKYFSDEGELEEWTPPDFSNDPKFIYTIKDKALREFAKNINDIWPLLARKVKDEVIQNPDRYSLVPITHGFIIPGGRFTEIYYWDTFWIIEGLLISGMQETAKGIIENLIELLNLFGHIPNGSRWYYQERSQPPMLTAMVATYYQYTNDTEFLKNNIAYLEKEMDFWLDERSVSVEKEGSSHKLLRYFALSSGPRPESYYEDYENAVDFDEERRTDFYVDIKSAAESGWDFSTRWFVSNDGSNNGTLRDIHTRYVVPADLNAIFAGALQNVANFHAILMNPRKAATYGQLAQQWRDAIQAILWNEEDGMWYDYDIRDKLHRKYFYSSNVSPLWQHAVDPNIVKANGDRILNSLKQSGGLDFPGGVPTSLIRSGEQWDFPNVWPPEVSIVVNAIENIGTPEASVLAFETAQTFVRSCHWGFQEYKQMFEKYDAENPGKFGGGGEYTVQFGFGWSNGAGLEFMKKYGEGLTADDSNDLGTTTTVSPSDNGDPSNNTA
kcat/Km [8]: 74500 M⁻¹ s⁻¹

Further lines, results first:

Ki [1]: 0.8 ± 0.2 µM | Ki [2]: 1 ± 0.24 µM
Molecule: OC[C@H]1NC[C@H](O)[C@@H](O)[C@@H]1O [1-deoxynojirimycin]

Ki [6]: 16000 ± 1000 µM | Ki [7]: 17000 ± 2000 µM | Ki ([2]; read-out: Enzyme / WT, competitive, substrate trehalose 0.2-2 mM, pH 6.0, 30 °C): 17000 ± 1000 µM
Molecule: COC1OC(CO)C(O)C(O)C1O (stereo not drawn) [methyl α-mannoside]
